Measured values from ChEMBL document CHEMBL4177730, “Rational modification of semaxanib and sunitinib for developing a tumor growth inhibitor targeting ATP binding site of tyrosine kinase” (2018).
Active and inactive are the calls of the source.

Tests used:
Type in all cases: functional, cell-based
CCRF-CEM = assay: Growth inhibition of human CCRF-CEM cells at 10 uM after 48 hrs by sulforhodamine B assay
HL-60(TB) = assay: Growth inhibition of human HL-60(TB) cells at 10 uM after 48 hrs by sulforhodamine B assay
K562 = assay: Growth inhibition of human K562 cells at 10 uM after 48 hrs by sulforhodamine B assay
MOLT-4 = assay: Growth inhibition of human MOLT4 cells at 10 uM after 48 hrs by sulforhodamine B assay
RPMI-8226 = assay: Growth inhibition of human RPMI8226 cells at 10 uM after 48 hrs by sulforhodamine B assay
SR = assay: Growth inhibition of human SR cells at 10 uM after 48 hrs by sulforhodamine B assay
A549 = assay: Growth inhibition of human A549/ATCC cells at 10 uM after 48 hrs by sulforhodamine B assay
EKVX = assay: Growth inhibition of human EKVX cells at 10 uM after 48 hrs by sulforhodamine B assay
HOP-62 = assay: Growth inhibition of human HOP62 cells at 10 uM after 48 hrs by sulforhodamine B assay
HOP-92 = assay: Growth inhibition of human HOP92 cells at 10 uM after 48 hrs by sulforhodamine B assay
NCI-H226 = assay: Growth inhibition of human NCI-H226 cells at 10 uM after 48 hrs by sulforhodamine B assay
NCI-H23 = assay: Growth inhibition of human NCI-H23 cells at 10 uM after 48 hrs by sulforhodamine B assay
NCI-H322M = assay: Growth inhibition of human NCI-H322M cells at 10 uM after 48 hrs by sulforhodamine B assay
NCI-H460 = assay: Growth inhibition of human NCI-H460 cells at 10 uM after 48 hrs by sulforhodamine B assay
NCI-H522 = assay: Growth inhibition of human NCI-H522 cells at 10 uM after 48 hrs by sulforhodamine B assay
COLO 205 = assay: Growth inhibition of human COLO205 cells at 10 uM after 48 hrs by sulforhodamine B assay
HCC 2998 = assay: Growth inhibition of human HCC2998 cells at 10 uM after 48 hrs by sulforhodamine B assay
HCT-116 = assay: Growth inhibition of human HCT116 cells at 10 uM after 48 hrs by sulforhodamine B assay
HCT-15 = assay: Growth inhibition of human HCT15 cells at 10 uM after 48 hrs by sulforhodamine B assay
HT-29 = assay: Growth inhibition of human HT-29 cells at 10 uM after 48 hrs by sulforhodamine B assay
KM12 = assay: Growth inhibition of human KM12 cells at 10 uM after 48 hrs by sulforhodamine B assay
SW-620 = assay: Growth inhibition of human SW620 cells at 10 uM after 48 hrs by sulforhodamine B assay
SF-268 = assay: Growth inhibition of human SF268 cells at 10 uM after 48 hrs by sulforhodamine B assay
SF-295 = assay: Growth inhibition of human SF295 cells at 10 uM after 48 hrs by sulforhodamine B assay
SF-539 = assay: Growth inhibition of human SF539 cells at 10 uM after 48 hrs by sulforhodamine B assay
SNB-19 = assay: Growth inhibition of human SNB19 cells at 10 uM after 48 hrs by sulforhodamine B assay
SNB-75 = assay: Growth inhibition of human SNB75 cells at 10 uM after 48 hrs by sulforhodamine B assay
U-251 = assay: Growth inhibition of human U251 cells at 10 uM after 48 hrs by sulforhodamine B assay
LOX IMVI = assay: Growth inhibition of human LOXIMVI cells at 10 uM after 48 hrs by sulforhodamine B assay
Malme-3M = assay: Growth inhibition of human MALME-3M cells at 10 uM after 48 hrs by sulforhodamine B assay
M14 = assay: Growth inhibition of human M14 cells at 10 uM after 48 hrs by sulforhodamine B assay
MDA-MB-435 = assay: Growth inhibition of human MDA-MB-435 cells at 10 uM after 48 hrs by sulforhodamine B assay
SK-MEL-2 = assay: Growth inhibition of human SK-MEL-2 cells at 10 uM after 48 hrs by sulforhodamine B assay
SK-MEL-28 = assay: Growth inhibition of human SK-MEL-28 cells at 10 uM after 48 hrs by sulforhodamine B assay
SK-MEL-5 = assay: Growth inhibition of human SK-MEL-5 cells at 10 uM after 48 hrs by sulforhodamine B assay
UACC-62 = assay: Growth inhibition of human UACC62 cells at 10 uM after 48 hrs by sulforhodamine B assay
IGROV-1 = assay: Growth inhibition of human IGROV1 cells at 10 uM after 48 hrs by sulforhodamine B assay
OVCAR-3 = assay: Growth inhibition of human OVCAR3 cells at 10 uM after 48 hrs by sulforhodamine B assay
OVCAR-4 = assay: Growth inhibition of human OVCAR4 cells at 10 uM after 48 hrs by sulforhodamine B assay
OVCAR-5 = assay: Growth inhibition of human OVCAR5 cells at 10 uM after 48 hrs by sulforhodamine B assay
OVCAR-8 = assay: Growth inhibition of human OVCAR8 cells at 10 uM after 48 hrs by sulforhodamine B assay
NCI/ADR-RES = assay: Growth inhibition of human NCI-ADR-RES cells at 10 uM after 48 hrs by sulforhodamine B assay
SK-OV-3 = assay: Growth inhibition of human SKOV3 cells at 10 uM after 48 hrs by sulforhodamine B assay
786-0 = assay: Growth inhibition of human 786-0 cells at 10 uM after 48 hrs by sulforhodamine B assay
A498 = assay: Growth inhibition of human A498 cells at 10 uM after 48 hrs by sulforhodamine B assay
ACHN = assay: Growth inhibition of human ACHN cells at 10 uM after 48 hrs by sulforhodamine B assay
CAKI-1 = assay: Growth inhibition of human CAKI-1 cells at 10 uM after 48 hrs by sulforhodamine B assay
RXF 393 = assay: Growth inhibition of human RXF393 cells at 10 uM after 48 hrs by sulforhodamine B assay
SN12C = assay: Growth inhibition of human SN12C cells at 10 uM after 48 hrs by sulforhodamine B assay
TK-10 = assay: Growth inhibition of human TK10 cells at 10 uM after 48 hrs by sulforhodamine B assay
UO-31 = assay: Growth inhibition of human UO31 cells at 10 uM after 48 hrs by sulforhodamine B assay
PC-3 = assay: Growth inhibition of human PC3 cells at 10 uM after 48 hrs by sulforhodamine B assay
DU-145 = assay: Growth inhibition of human DU145 cells at 10 uM after 48 hrs by sulforhodamine B assay
MCF7 = assay: Growth inhibition of human MCF7 cells at 10 uM after 48 hrs by sulforhodamine B assay
MDA-MB-231 = assay: Growth inhibition of human MDA-MB-231 cells at 10 uM after 48 hrs by sulforhodamine B assay
Hs-578T = assay: Growth inhibition of human Hs 578T cells at 10 uM after 48 hrs by sulforhodamine B assay
BT-549 = assay: Growth inhibition of human BT549 cells at 10 uM after 48 hrs by sulforhodamine B assay
T47D = assay: Growth inhibition of human T47D cells at 10 uM after 48 hrs by sulforhodamine B assay
MDA-MB-468 = assay: Growth inhibition of human MDA-MB-468 cells at 10 uM after 48 hrs by sulforhodamine B assay

Measured: growth inhibition (GI)

O=C1/C(=C\c2cccn2C(=O)c2ccc(Cl)s2)c2ccccc2N1c1c(Cl)cccc1Cl
inactive: all assays above

Cc1ccc(S(=O)(=O)n2cccc2/C=C2\C(=O)N(c3c(Cl)cccc3Cl)c3ccccc32)cc1
inactive: all assays above
